Reference: patent US12441726B2, “Compounds and uses thereof” (Foghorn Therapeutics Inc., priority 2020, dated 2025)

Tests used:
BRM = BRM (Homo sapiens, UniProt P51531); test: ATPase catalytic activity assay (ADP-Glo), BRM; conditions: 30 nM BRM, 400 μM ATP; for IC50: BRM ATPase: IC50 (uM)
Description: The ATPase catalytic activity of BRM or BRG-1 was measured by an in vitro biochemical assay using ADP-Glo™ (Promega, V9102). The ADP-Glo™ kinase assay is performed in two steps once the reaction is complete. The first step is to deplete any unconsumed ATP in the reaction. The second step is to convert the reaction product ADP to ATP, which will be utilized by the luciferase to generate luminesce and be detected by a luminescence reader, such as Envision.
Then following addition of 5 μL of ADP-Glo™ Reagent provided in the kit, the reaction incubates at room temperature for 40 minutes. Then 10 μL of Kinase Detection Reagent provided in the kit is added to convert ADP to ATP, and the reaction incubates at room temperature for 60 minutes. Finally, luminescence measurement is collected with a plate-reading luminometer, such as Envision.

BRG-1 = BRG-1 (Homo sapiens, UniProt P51532); test: ATPase catalytic activity assay (ADP-Glo), BRG-1; conditions: for Emax: 1 h, read-out: BRG1 Max % Inhibition, ADP-Glo, 30 nM BRG-1, 400 μM ATP
BRG-1, sequence (P51532 whole entry): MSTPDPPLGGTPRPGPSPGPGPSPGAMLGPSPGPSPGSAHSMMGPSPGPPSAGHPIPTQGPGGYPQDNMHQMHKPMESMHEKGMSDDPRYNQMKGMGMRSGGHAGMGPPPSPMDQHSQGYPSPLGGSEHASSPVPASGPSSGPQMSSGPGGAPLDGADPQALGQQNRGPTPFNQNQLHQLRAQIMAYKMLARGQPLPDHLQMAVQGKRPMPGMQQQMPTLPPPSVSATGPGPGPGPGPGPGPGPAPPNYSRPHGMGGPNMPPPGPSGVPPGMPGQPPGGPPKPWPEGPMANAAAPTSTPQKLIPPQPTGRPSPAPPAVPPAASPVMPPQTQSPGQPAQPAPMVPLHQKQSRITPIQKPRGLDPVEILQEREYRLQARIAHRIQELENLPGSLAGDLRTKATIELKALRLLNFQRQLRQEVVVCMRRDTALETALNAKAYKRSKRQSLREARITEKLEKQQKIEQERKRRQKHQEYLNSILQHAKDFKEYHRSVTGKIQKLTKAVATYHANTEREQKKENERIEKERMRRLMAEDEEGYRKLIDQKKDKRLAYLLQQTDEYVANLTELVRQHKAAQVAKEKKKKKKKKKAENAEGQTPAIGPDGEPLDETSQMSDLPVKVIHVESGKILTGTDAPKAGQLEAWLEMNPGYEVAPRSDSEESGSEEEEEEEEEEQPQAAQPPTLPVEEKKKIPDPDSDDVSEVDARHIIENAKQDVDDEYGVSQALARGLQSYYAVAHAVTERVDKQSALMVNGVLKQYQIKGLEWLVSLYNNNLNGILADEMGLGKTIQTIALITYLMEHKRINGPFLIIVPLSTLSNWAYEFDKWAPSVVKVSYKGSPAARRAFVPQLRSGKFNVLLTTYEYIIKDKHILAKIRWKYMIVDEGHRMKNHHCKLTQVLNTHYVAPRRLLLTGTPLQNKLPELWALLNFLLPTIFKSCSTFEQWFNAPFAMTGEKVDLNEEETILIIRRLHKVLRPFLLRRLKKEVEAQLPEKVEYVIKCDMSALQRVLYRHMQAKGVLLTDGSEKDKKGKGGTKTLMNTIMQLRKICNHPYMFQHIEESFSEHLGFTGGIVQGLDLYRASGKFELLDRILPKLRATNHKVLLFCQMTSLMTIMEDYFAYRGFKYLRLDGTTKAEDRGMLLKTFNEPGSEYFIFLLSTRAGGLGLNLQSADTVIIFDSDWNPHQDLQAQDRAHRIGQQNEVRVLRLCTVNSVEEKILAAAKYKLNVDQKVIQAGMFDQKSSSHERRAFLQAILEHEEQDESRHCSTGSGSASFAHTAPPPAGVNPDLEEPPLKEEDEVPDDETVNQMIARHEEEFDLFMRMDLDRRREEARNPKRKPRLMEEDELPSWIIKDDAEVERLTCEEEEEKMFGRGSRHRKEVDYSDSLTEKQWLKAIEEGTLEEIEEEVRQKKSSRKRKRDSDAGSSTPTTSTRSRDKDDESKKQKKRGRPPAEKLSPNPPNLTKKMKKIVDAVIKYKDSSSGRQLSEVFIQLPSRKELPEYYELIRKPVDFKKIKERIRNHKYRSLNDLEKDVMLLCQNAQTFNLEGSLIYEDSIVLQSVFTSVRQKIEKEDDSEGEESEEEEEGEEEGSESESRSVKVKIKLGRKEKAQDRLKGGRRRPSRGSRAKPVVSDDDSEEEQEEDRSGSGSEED

BRM, sequence (P51531 whole entry): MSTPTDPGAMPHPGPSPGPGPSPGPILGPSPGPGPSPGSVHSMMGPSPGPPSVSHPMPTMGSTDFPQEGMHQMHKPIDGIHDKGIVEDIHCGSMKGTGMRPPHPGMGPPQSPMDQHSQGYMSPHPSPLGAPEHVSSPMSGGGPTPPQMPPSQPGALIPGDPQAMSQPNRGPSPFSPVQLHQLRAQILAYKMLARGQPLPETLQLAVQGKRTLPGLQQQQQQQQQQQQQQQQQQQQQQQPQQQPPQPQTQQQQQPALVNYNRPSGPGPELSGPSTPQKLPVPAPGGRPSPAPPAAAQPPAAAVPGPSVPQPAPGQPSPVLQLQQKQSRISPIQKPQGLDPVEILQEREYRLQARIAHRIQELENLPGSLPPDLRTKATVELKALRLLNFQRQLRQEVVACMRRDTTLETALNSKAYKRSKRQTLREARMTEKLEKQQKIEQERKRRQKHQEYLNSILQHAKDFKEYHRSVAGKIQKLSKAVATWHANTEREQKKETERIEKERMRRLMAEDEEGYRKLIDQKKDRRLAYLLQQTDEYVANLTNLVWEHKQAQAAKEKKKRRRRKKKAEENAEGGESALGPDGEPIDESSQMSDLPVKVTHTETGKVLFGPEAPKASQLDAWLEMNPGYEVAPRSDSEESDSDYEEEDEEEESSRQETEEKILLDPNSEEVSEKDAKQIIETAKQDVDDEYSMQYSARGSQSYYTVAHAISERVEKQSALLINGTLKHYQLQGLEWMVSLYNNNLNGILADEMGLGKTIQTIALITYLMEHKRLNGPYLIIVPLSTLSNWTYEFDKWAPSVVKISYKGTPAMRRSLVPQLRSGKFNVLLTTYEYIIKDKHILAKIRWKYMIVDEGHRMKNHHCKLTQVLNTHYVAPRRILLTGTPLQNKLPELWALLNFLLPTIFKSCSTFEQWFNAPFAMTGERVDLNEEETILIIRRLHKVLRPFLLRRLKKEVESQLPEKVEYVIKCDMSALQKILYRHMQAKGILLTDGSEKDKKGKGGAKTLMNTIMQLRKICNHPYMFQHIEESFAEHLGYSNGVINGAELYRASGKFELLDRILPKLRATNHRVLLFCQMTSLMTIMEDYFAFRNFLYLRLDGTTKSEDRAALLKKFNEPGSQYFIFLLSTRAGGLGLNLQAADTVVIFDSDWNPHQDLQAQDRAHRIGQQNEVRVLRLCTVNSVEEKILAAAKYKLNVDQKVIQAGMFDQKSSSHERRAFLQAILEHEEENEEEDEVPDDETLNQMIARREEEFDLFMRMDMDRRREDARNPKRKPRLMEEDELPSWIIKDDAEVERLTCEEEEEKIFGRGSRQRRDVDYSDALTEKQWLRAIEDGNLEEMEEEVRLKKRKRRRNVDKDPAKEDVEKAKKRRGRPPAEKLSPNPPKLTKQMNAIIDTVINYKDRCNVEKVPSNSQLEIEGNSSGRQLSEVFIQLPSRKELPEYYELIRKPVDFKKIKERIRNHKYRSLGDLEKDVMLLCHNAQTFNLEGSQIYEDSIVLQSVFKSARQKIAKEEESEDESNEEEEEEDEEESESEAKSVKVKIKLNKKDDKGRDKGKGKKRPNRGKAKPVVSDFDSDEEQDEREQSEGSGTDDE

| Compound | BRM Max % Inhibition (BRM) [%] | IC50 (BRM) [µM] | IC50 (BRG-1) [nM] | Emax (BRG-1) [%] |
| --- | --- | --- | --- | --- |
| COCCNC(=O)c1cccc(C#Cc2ccnc(CNC(=O)c3ccc4c(c3)[C@](C)(C#N)COC4)c2)c1 [Compound 83] | 101 | < 0.1 | < 100 | 99 |
| C[C@@]1(C#N)COCc2ccc(C(=O)NCc3cc4nc(-c5ccnc(C6CCOCC6)n5)ccc4cn3)cc21 [Compound 397] | 93 | 0.1 to 0.5 | 500 to 1000 | 66 |
| C[C@@]1(F)COCc2ccc(C(=O)NCc3cc4nc(-c5cccc(N6CCCC6=O)n5)cnc4cn3)cc21 [Compound 143] | 103 | < 0.1 | 100 to 500 | 89 |
| C[C@@]1(F)COCc2ccc(C(=O)NCc3cc4nc(-c5ccccc5)sc4cn3)cc21 [Compound 300] | 99 | 0.1 to 0.5 | 500 to 1000 | 63 |
| C[C@@]1(C#N)COCc2ccc(C(=O)NCc3cc4cc(N5CCn6ncc(C(F)F)c6C5)ccc4nn3)cc21 [Compound 219] | 94 | 0.1 to 0.5 | 500 to 1000 | 57 |
| C[C@@]1(C#N)COCc2ccc(C(=O)NCc3cc4c(cn3)CCN(c3ccc(=O)n(C5CC5)n3)C4)cc21 [Compound 230] | 97 | 0.1 to 0.5 | 500 to 1000 | 62 |
| C[C@@]1(C#N)COCc2ccc(C(=O)NCc3cc(N4CCC5(C4)CN(c4ccccc4)C5)ccn3)cc21 [Compound 11] | 82 | > 1 | > 1000 | 26 |
| C[C@@]1(C#N)COCc2ccc(C(=O)NCc3cc4cc(-c5cncc(N6CCC6)n5)ccc4nn3)cc21 [Compound 356] | 97 | < 0.1 | 100 to 500 | 95 |
| COC(=O)c1cccc(C#Cc2ccnc(CNC(=O)c3ccc4c(c3)[C@](C)(C#N)COC4)c2)c1 [Compound 3] | 99 | < 0.1 | > 1000 | 78 |
| COC[C@H](NC(=O)c1ccc2c(c1)[C@](C)(C#N)COC2)c1cc(/C=C/c2ccccc2)ccn1 [Compound 41] | 85 | 0.5 to 1 | > 1000 | 55 |
| C[C@@]1(C#N)COCc2ccc(C(=O)NCc3cc4cc(-c5nccc(N6CCC6)n5)ccc4nn3)cc21 [Compound 335] | 101 | < 0.1 | 100 to 500 | 84 |
| C[C@@]1(F)COCc2ccc(C(=O)NCc3cc4nc(-c5cccc(C6CC6)n5)ccc4nn3)cc21 [Compound 240] | 101 | < 0.1 | 100 to 500 | 89 |
| COC(=O)c1cccc(C#Cc2ccnc(CNC(=O)c3ccc4c(c3)[C@](C)(C#N)CO4)c2)c1 [Compound 37] | 76 | > 1 | > 1000 | 21 |
| COc1cccc(C#Cc2ccnc(CNC(=O)c3ccc4c(c3)[C@](C)(C#N)COC4)c2)c1 [Compound 2] | 96 | 0.1 to 0.5 | > 1000 | 65 |
| C[C@@]1(C#N)COCc2ccc(C(=O)NCc3cc(C#Cc4ccccc4)ccn3)cc21 [Compound 1] | 90 | 0.1 to 0.5 | > 1000 | 56 |
| C[C@@]1(C#N)COCc2ccc(C(=O)NCc3cc(OCc4cccc(C#N)c4)ccn3)cc21 [Compound 65] | 90 | 0.1 to 0.5 | > 1000 | 39 |
| C[C@@]1(C#N)COCc2ccc(C(=O)NCc3cc(C4CN(c5ccccc5)C4)ccn3)cc21 [Compound 30] | 92 | 0.1 to 0.5 | > 1000 | 35 |
| COC1CN(c2cncc(-c3ccc4cnc(CNC(=O)c5ccc6c(c5)[C@](C)(C#N)COC6)cc4n3)n2)C1 [Compound 409] | 96 | < 0.1 | 100 to 500 | 95 |
| C[C@@]1(F)COCc2ccc(C(=O)NCc3cc4nc(-c5cccc(C6(CO)CC6)n5)ccc4cn3)cc21 [Compound 168] | 99 | < 0.1 | 100 to 500 | 93 |
| C[C@@]1(F)COCc2ccc(C(=O)NCc3cc4nc(-c5ccc(=O)n(C6CC6)n5)ccc4cn3)cc21 [Compound 233] | 98 | 0.1 to 0.5 | 500 to 1000 | 74 |
| C[C@@]1(F)COCc2ccc(C(=O)NCc3cc4nc(-c5cncc(C6CC6)n5)ccc4nn3)cc21 [Compound 255] | 100 | < 0.1 | 100 to 500 | 90 |

Now from value to compound:

| BRM Max % Inhibition (BRM) [%] | IC50 (BRM) [µM] | IC50 (BRG-1) [nM] | Emax (BRG-1) [%] | Compound |
| --- | --- | --- | --- | --- |
| 93 | 0.1 to 0.5 | 500 to 1000 | 56 | Cn1cc2c(-c3ccc4cnc(CNC(=O)c5ccc6c(c5)[C@](C)(C#N)COC6)cc4n3)cccc2n1 [Compound 151] |
| 96 | 0.1 to 0.5 | > 1000 | 67 | C[C@@]1(C#N)COCc2ccc(C(=O)NCc3cc(OCc4cccc(N5CCC5)c4)ccn3)cc21 [Compound 40] |
| 86 | 0.1 to 0.5 | > 1000 | 51 | CN(C)c1ncc(-c2ccc3cnc(CNC(=O)c4ccc5c(c4)[C@](C)(C#N)COC5)cc3n2)cn1 [Compound 472] |
| 97 | < 0.1 | 100 to 500 | 86 | C[C@@]1(C#N)COCc2ccc(C(=O)NCc3cc4nc(-c5ccn6nccc6c5)ccc4cn3)cc21 [Compound 459] |
| 95 | 0.1 to 0.5 | 500 to 1000 | 67 | CN1CCCc2c(-c3ccc4cnc(CNC(=O)c5ccc6c(c5)[C@](C)(C#N)COC6)cc4n3)cccc21 [Compound 149] |
| 95 | 0.1 to 0.5 | > 1000 | 51 | C[C@@]1(C#N)COCc2ccc(C(=O)NCc3cc4nc(-c5cccc(N6CCC6)c5)ccc4cn3)cc21 [Compound 126] |
| 93 | 0.1 to 0.5 | > 1000 | 40 | CN(C)C(=O)c1cccc(-c2ccc3cnc(CNC(=O)c4ccc5c(c4)[C@](C)(C#N)COC5)cc3n2)c1 [Compound 490] |
| 93 | 0.1 to 0.5 | 500 to 1000 | 67 | Cc1nccc(-c2ccc3cnc(CNC(=O)c4ccc5c(c4)[C@](C)(C#N)COC5)cc3n2)n1 [Compound 444] |
| 99 | < 0.1 | 500 to 1000 | 86 | Cn1ncc2ccc(-c3ccc4cnc(CNC(=O)c5ccc6c(c5)[C@](C)(C#N)COC6)cc4n3)cc21 [Compound 110] |
| 100 | < 0.1 | 100 to 500 | 92 | COC1CN(c2nccc(-c3ccc4cnc(CNC(=O)c5ccc6c(c5)[C@](C)(C#N)COC6)cc4n3)n2)C1 [Compound 430] |
| 100 | < 0.1 | 100 to 500 | 95 | CO[C@H]1CCN(c2nccc(-c3ccc4cnc(CNC(=O)c5ccc6c(c5)[C@](C)(C#N)COC6)cc4n3)n2)C1 [Compound 339] |
